Results as given in ChEMBL document CHEMBL1201862, “PubChem BioAssay data set” (2004).
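Where inhibition never reached the appropriate level, the endpoint shown equals the highest concentration tested. Otherwise, values were interpolated linearly from a five-concentration, 48-hour dose response in 96-well plates. Abbreviation: GI50, concentration required for 50% inhibition of growth.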 The source made the active and inactive calls. No stated cut-off is given here; in the data, active = GI50 up to about 1.1 µM and inactive = higher.

What was measured:
Assay in all cases: growth of human tumour cells (NCI), 48 h
SNB-75 = system: SNB-75
NCI-H460 = system: NCI-H460
OVCAR-5 = system: OVCAR-5
UO-31 = system: UO-31
DMS-273 = system: DMS-273
KM12 = system: KM12
NCI-H23 = system: NCI-H23
786-0 = system: 786-0
HOP-62 = system: HOP-62
HT-29 = system: HT-29
CCRF-CEM = system: CCRF-CEM
SK-OV-3 = system: SK-OV-3
SK-MEL-28 = system: SK-MEL-28
K562 = system: K562
HCC 2998 = system: HCC 2998
SN12C = system: SN12C
M14 = system: M14
NCI-H226 = system: NCI-H226
OVCAR-4 = system: OVCAR-4
U-251 = system: U-251
Malme-3M = system: Malme-3M
HOP-92 = system: HOP-92
SF-268 = system: SF-268
A498 = system: A498
COLO 205 = system: COLO 205
OVCAR-8 = system: OVCAR-8
SNB-19 = system: SNB-19
LXFL 529 = system: LXFL 529
XF498 = system: XF498
SF-295 = system: SF-295
SW-620 = system: SW-620
RXF 393 = system: RXF 393
UACC-62 = system: UACC-62
A549 = system: A549
SK-MEL-5 = system: SK-MEL-5
DMS-114 = system: DMS-114
UACC-257 = system: UACC-257
OVCAR-3 = system: OVCAR-3
IGROV-1 = system: IGROV-1
RPMI-8226 = system: RPMI-8226
NCI-H522 = system: NCI-H522
HCT-15 = system: HCT-15
HL-60 = system: HL-60
SF-539 = system: SF-539
TK-10 = system: TK-10
MOLT-4 = system: MOLT-4
DLD-1 = system: DLD-1
ACHN = system: ACHN
LOX IMVI = system: LOX IMVI
SK-MEL-2 = system: SK-MEL-2
SNB-78 = system: SNB-78
M19-MEL = system: M19-MEL
KM-20L2 = system: KM-20L2
HCT-116 = system: HCT-116
SR = system: SR
EKVX = system: EKVX
CAKI-1 = system: CAKI-1

## COc1ccc2c3c1C(=O)CCCC3CO2 (configuration not stated)
SNB-75
  GI50: > 100 µM (inactive)
NCI-H460
  GI50: > 100 µM (inactive)
OVCAR-5
  GI50: > 100 µM (inactive)
UO-31
  GI50: > 100 µM (inactive)
DMS-273
  GI50: > 100 µM (inactive)
KM12
  GI50: > 100 µM (inactive)
NCI-H23
  GI50: > 100 µM (inactive)
786-0
  GI50: > 100 µM (inactive)
HOP-62
  GI50: > 100 µM (inactive)
HT-29
  GI50: > 100 µM (inactive)
CCRF-CEM
  GI50: > 100 µM (inactive)
SK-OV-3
  GI50: > 100 µM (inactive)
SK-MEL-28
  GI50: > 100 µM (inactive)
K562
  GI50: > 100 µM (inactive)
HCC 2998
  GI50: > 100 µM (inactive)
SN12C
  GI50: > 100 µM (inactive)
M14
  GI50: > 100 µM (inactive)
NCI-H226
  GI50: > 100 µM (inactive)
OVCAR-4
  GI50: > 100 µM (inactive)
U-251
  GI50: > 100 µM (inactive)
Malme-3M
  GI50: > 100 µM (inactive)
HOP-92
  GI50: > 100 µM (inactive)
SF-268
  GI50: > 100 µM (inactive)
A498
  GI50: > 100 µM (inactive)
COLO 205
  GI50: > 100 µM (inactive)
OVCAR-8
  GI50: > 100 µM (inactive)
SNB-19
  GI50: > 100 µM (inactive)
LXFL 529
  GI50: > 100 µM (inactive)
XF498
  GI50: > 100 µM (inactive)
SF-295
  GI50: > 100 µM (inactive)
SW-620
  GI50: > 100 µM (inactive)
RXF 393
  GI50: > 100 µM (inactive)
UACC-62
  GI50: > 100 µM (inactive)
A549
  GI50: > 100 µM (inactive)
SK-MEL-5
  GI50: > 100 µM (inactive)
DMS-114
  GI50: > 100 µM (inactive)
UACC-257
  GI50: > 100 µM (inactive)
OVCAR-3
  GI50: > 100 µM (inactive)
IGROV-1
  GI50: > 100 µM (inactive)
RPMI-8226
  GI50: > 100 µM (inactive)
NCI-H522
  GI50: > 100 µM (inactive)
HCT-15
  GI50: > 100 µM
HL-60
  GI50: > 100 µM (inactive)
SF-539
  GI50: > 100 µM (inactive)
TK-10
  GI50: > 100 µM (inactive)
MOLT-4
  GI50: > 100 µM (inactive)
DLD-1
  GI50: > 100 µM (inactive)
ACHN
  GI50: > 100 µM (inactive)
LOX IMVI
  GI50: > 100 µM (inactive)
SK-MEL-2
  GI50: > 100 µM (inactive)
SNB-78
  GI50: > 100 µM (inactive)
M19-MEL
  GI50: > 100 µM (inactive)

## CC(SC(=O)Nc1ccc(/N=N/c2ccccc2)cc1)C(=O)O (configuration not stated)
SNB-75
  GI50: 6.4 µM (inactive)
KM-20L2
  GI50: > 100 µM (inactive)
NCI-H460
  GI50: > 100 µM (inactive)
HCT-116
  GI50: > 100 µM (inactive)
OVCAR-5
  GI50: > 100 µM (inactive)
UO-31
  GI50: 68.7 µM (inactive)
DMS-273
  GI50: 48.6 µM (inactive)
KM12
  GI50: 54.3 µM (inactive)
NCI-H23
  GI50: > 100 µM (inactive)
786-0
  GI50: 79.8 µM (inactive)
HOP-62
  GI50: > 100 µM (inactive)
HT-29
  GI50: 68.4 µM (inactive)
SR
  GI50: 49 µM (inactive)
CCRF-CEM
  GI50: 36 µM (inactive)
SK-MEL-28
  GI50: > 100 µM (inactive)
K562
  GI50: > 100 µM (inactive)
HCC 2998
  GI50: > 100 µM (inactive)
SN12C
  GI50: > 100 µM (inactive)
M14
  GI50: > 100 µM (inactive)
NCI-H226
  GI50: > 100 µM (inactive)
OVCAR-4
  GI50: > 100 µM (inactive)
U-251
  GI50: > 100 µM (inactive)
SF-268
  GI50: 17.3 µM (inactive)
A498
  GI50: > 100 µM (inactive)
EKVX
  GI50: > 100 µM (inactive)
COLO 205
  GI50: > 100 µM (inactive)
OVCAR-8
  GI50: 57 µM (inactive)
SNB-19
  GI50: > 100 µM (inactive)
LXFL 529
  GI50: 98.4 µM (inactive)
CAKI-1
  GI50: > 100 µM (inactive)
SF-295
  GI50: 56.4 µM (inactive)
SW-620
  GI50: > 100 µM (inactive)
RXF 393
  GI50: 73.5 µM (inactive)
UACC-62
  GI50: 28.8 µM (inactive)
A549
  GI50: 56.4 µM (inactive)
DMS-114
  GI50: > 100 µM (inactive)
UACC-257
  GI50: 98.6 µM (inactive)
OVCAR-3
  GI50: > 100 µM (inactive)
IGROV-1
  GI50: 24.3 µM (inactive)
RPMI-8226
  GI50: > 100 µM (inactive)
NCI-H522
  GI50: 68.4 µM (inactive)
HCT-15
  GI50: > 100 µM
HL-60
  GI50: 38.6 µM (inactive)
SF-539
  GI50: 88.5 µM (inactive)
TK-10
  GI50: 58.1 µM (inactive)
MOLT-4
  GI50: 34 µM (inactive)
ACHN
  GI50: 57.9 µM (inactive)
LOX IMVI
  GI50: > 100 µM (inactive)
SK-MEL-2
  GI50: > 100 µM (inactive)
SNB-78
  GI50: > 100 µM (inactive)
